According to ChEMBL document CHEMBL4321867, “Optimization of LpxC Inhibitor Lead Compounds Focusing on Efficacy and Formulation for High Dose Intravenous Administration” (J Med Chem, 2020):
≈ marks a conversion by molar mass, not a printed value.

What was measured:
in vivo [1] = conditions: Wistar, rat, iv, 10 mg/kg
Klebsiella pneumoniae [2] = assay: microbe, parasite or virus in culture
Klebsiella pneumoniae [3] = assay: microbe, parasite or virus in culture; conditions: T6474
Serratia marcescens = assay: microbe, parasite or virus in culture
Pseudomonas aeruginosa [4] = assay: microbe, parasite or virus in culture; conditions: ATCC 27853
physchem [5] = conditions: buffer, pH 4
in vitro [6] = conditions: rat, liver microsomes
Morganella morganii = assay: microbe, parasite or virus in culture
Citrobacter freundii = assay: microbe, parasite or virus in culture
in vitro [7] = conditions: human, liver microsomes
in vitro [8] = conditions: human, hepatocytes
physchem [9] = conditions: buffer, pH 9
Escherichia coli [10] = assay: microbe, parasite or virus in culture
Klebsiella oxytoca = assay: microbe, parasite or virus in culture
physchem [11] = conditions: 5% mannitol/water, pH 8.2
in vivo [12] = conditions: mouse, sc, 150 mg/kg
Klebsiella aerogenes = assay: microbe, parasite or virus in culture
Escherichia coli [13] = assay: microbe, parasite or virus in culture; conditions: ATCC 25922
in vitro [14] = conditions: rat, plasma
physchem [15] = conditions: buffer, pH 7
[16] = tested on: Stenotrophomonas maltophilia; assay: microbe, parasite or virus in culture
in vitro [17] = conditions: rat, hepatocytes
Proteus mirabilis = assay: microbe, parasite or virus in culture
Enterobacter cloacae = assay: microbe, parasite or virus in culture
Pseudomonas aeruginosa [18] = assay: microbe, parasite or virus in culture
Acinetobacter baumannii = assay: microbe, parasite or virus in culture
Burkholderia cepacia = assay: microbe, parasite or virus in culture
Moraxella catarrhalis = assay: microbe, parasite or virus in culture
physchem [19] = conditions: n-octanol/phosphate buffer, pH 7.4
Haemophilus influenzae = assay: microbe, parasite or virus in culture

## C[C@@](CCN1Cc2cc(C#CC#C[C@H]3C[C@@H]3[C@@H](O)CO)cn2C1=O)(C(=O)NO)S(C)(=O)=O
In vivo [1]
  clearance at 24 h: 3.1 mL/min/kg
Klebsiella pneumoniae [2]
  MIC90: 4 µg/mL (≈ 8.63 µM)
Klebsiella pneumoniae [3]
  MIC: 1 µg/mL (≈ 2.16 µM)
Serratia marcescens
  MIC90: 0.5 µg/mL (≈ 1.08 µM)
Pseudomonas aeruginosa [4]
  MIC: 1 µg/mL (≈ 2.16 µM)
Physchem [5]
  solubility at 24 h: > 780 µg/mL
In vitro [6]
  microsomal CLint at 1 µM: < 10 µL/min/mg
Morganella morganii
  MIC90: 1 µg/mL (≈ 2.16 µM)
Citrobacter freundii
  MIC90: 1 µg/mL (≈ 2.16 µM)
In vitro [7]
  microsomal CLint at 1 µM: < 10 µL/min/mg
In vitro [8]
  hepatocyte CLint at 1 µM: < 2 µL/min/1e6 cells
Physchem [9]
  solubility at 24 h: > 780 µg/mL
Escherichia coli [10]
  MIC90: 2 µg/mL (≈ 4.31 µM)
Klebsiella oxytoca
  MIC90: 4 µg/mL (≈ 8.63 µM)
Physchem [11]
  solubility: 25000 µg/mL (≈ 53900 µM)
In vivo [12]
  AUC(0-t) at 24 h: 347 µg·h/mL
Klebsiella aerogenes
  MIC90: 2 µg/mL (≈ 4.31 µM)
Escherichia coli [13]
  MIC: 0.5 µg/mL (≈ 1.08 µM)
In vitro [14]
  fraction unbound at 1 µM: 0.018
Physchem [15]
  solubility at 24 h: > 780 µg/mL
[16]
  MIC90: > 16 µg/mL
In vitro [17]
  hepatocyte CLint at 1 µM: 10.2 µL/min/1e6 cells
Proteus mirabilis
  MIC90: 1 µg/mL (≈ 2.16 µM)
Enterobacter cloacae
  MIC90: 4 µg/mL (≈ 8.63 µM)
Pseudomonas aeruginosa [18]
  MIC90: 2 µg/mL (≈ 4.31 µM)
Acinetobacter baumannii
  MIC90: > 16 µg/mL
Burkholderia cepacia
  MIC90: 8 µg/mL (≈ 17.3 µM)
Moraxella catarrhalis
  MIC90: > 16 µg/mL
Physchem [19]
  logD: 0.5
Haemophilus influenzae
  MIC90: ≤ 0.03 µg/mL
